In patent publication US20200039918A1, “METHOD FOR PREPARING SINGLE CRYSTAL OF ANHYDROUS HALOGENATED CHOLINE OR DERIVATIVE THEREOF” (HEBEI UNIVERSITY OF SCIENCE AND TECHNOLOGY, priority 2017, published 2020):

Tests used:
[1] = water absorption and agglomeration after being placed in the air for 24 hours; assay type: physicochemical
[2] = TG
Procedure: The crystal structure and thermal stability of anhydrous choline chloride single crystal product obtained in Experiment example 1 were analyzed, respectively.

SMILES	agglomeration [1]	water absorption amount [1] [wt %]	initial temperature of thermal cracking ([2]; FIG. 5) [°C]	temperature at which the weight loss rate reaches the maximum ([2]; FIG. 5) [°C]	thermal stability (comparison in words) ([2]; versus commercial product)	temperature at which weight loss began ([2]; weight loss ascribed to evaporation of water) [°C]
CC(=O)OCC[N+](C)(C)C.[Cl-] [acetylcholine chloride]	not agglomerated	1.58				
C[N+](C)(C)CCO.[I-] [anhydrous choline iodide single crystal, choline iodide]	not agglomerated	2.30				
C[N+](C)(C)CCO.[Cl-] [choline chloride]	not agglomerated	2.58	350	370	better than that of commercial choline chloride	330
CCC(=O)OCC[N+](C)(C)C.[Br-] [propionylcholine bromide]	not agglomerated	0.77				
CCC(=O)OCC[N+](C)(C)C.[Cl-] [propionylcholine chloride]	not agglomerated	1.06				
